# Laboratory results reported in ChEMBL document CHEMBL5725860 (2018).
# pEC50: −log10 of the molar value.
# Biological target: Neurotensin receptor type 1 (Homo sapiens, UniProt P30989)
# Test: NTR1 Ca2+ Flux Dose Response: NTSR1 (NTR1) CHO cells are plated in 20 uL of assay media containing Ham's F12 supplemented with 10% fetal bovine serum and 0.4 mg/mL G418 at a concentration of 1.0×10^6 cells per mL into black, 384-well assay plates with clear bottoms using a Multidrop liquid handler. Assay plates are incubated at 37° C. in 5% CO2. The next day, the assay plates are aspirated to remove growth media and washed once with 20 uL of DPBS. The DPBS is then aspirated from the assay plate and replaced with 25 uL of Fluo-4 NW calcium dye prepared according to the manufacturer's recommendations then the plates are incubated for 1 hour at 37° C. Following the incubation in the presence of dye, the assay is run on a Molecular Devices FlexStation-III using 494 excitation and 516 emission wavelengths set to read for 90 seconds with the addition at 18 seconds of 5 uL of 6× final concentration of test compounds and peptide control diluted in assay media containing 0.1% BSA and no more than 9% DMSO to yield a maximum final DMSO concentration of 1.5%. […] EC50 values were calculated for those compounds tested in 8-point dose dependent response.
# Sequence of Neurotensin receptor type 1 (P30989 whole entry): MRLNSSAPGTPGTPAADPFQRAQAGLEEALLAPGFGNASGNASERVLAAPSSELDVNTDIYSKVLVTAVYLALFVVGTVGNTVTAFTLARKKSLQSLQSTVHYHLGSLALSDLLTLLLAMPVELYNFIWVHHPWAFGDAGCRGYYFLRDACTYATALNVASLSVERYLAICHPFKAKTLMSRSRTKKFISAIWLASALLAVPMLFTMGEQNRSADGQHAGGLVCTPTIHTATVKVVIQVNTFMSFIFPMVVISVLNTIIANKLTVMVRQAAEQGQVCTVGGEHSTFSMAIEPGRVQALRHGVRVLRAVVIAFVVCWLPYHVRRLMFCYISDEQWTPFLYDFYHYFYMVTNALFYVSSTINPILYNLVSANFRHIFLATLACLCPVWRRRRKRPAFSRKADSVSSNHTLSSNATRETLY
row,pEC50,SMILES
1,> 6.30,COc1ccccc1C1CCN(c2nc(C3CC3)nc3cc(F)c(N(C)CCO)cc23)CC1
2,< 5.00,COc1ccccc1C1CCN(c2nc(C3CC3)nc3c(N(C)CCO)cccc23)CC1
3,< 5.00,COc1ccccc1C1CCN(c2nc(C3CC3)nc(C)c2CC(=O)N(C)CCO)CC1
4,< 5.00,COc1cccc2c1CCN(c1nc(C3CC3)nc3ccc(N(C)CCO)cc13)C2
